In ChEMBL document CHEMBL4004878, “Design, synthesis and structure-bactericidal activity relationships of novel 9-oxime ketolides and reductive epimers of acylides” (2017):
In brackets after ≈: the same amount, converted by molar mass.

Assays:
Type in all cases: functional
[1] = test system: Staphylococcus aureus; assay: Ratio of MBC to MIC for methicillin-resistant Staphylococcus aureus PU20 expressing constitutive ermC
[2] = test system: Moraxella catarrhalis; assay: Ratio of MBC to MIC against erythromycin-susceptible Moraxella catarrhalis 11B366
[3] = test system: Staphylococcus aureus; assay: Ratio of MBC to MIC against methicillin-resistant Staphylococcus aureus PU32 expressing inducible ermA
[4] = test system: Moraxella catarrhalis; assay: Bactericidal activity against erythromycin-susceptible Moraxella catarrhalis 11B366 incubated for 20 hrs followed by sub-culturing for 24 hrs in absence of compound
[5] = test system: Staphylococcus aureus; assay: Bacteriostatic activity against methicillin-resistant Staphylococcus aureus PU20 expressing constitutive ermC after 20 hrs by two-fold microbroth dilution method; settings: PU20, 20 h
[6] = test system: Streptococcus pyogenes; assay: Bactericidal activity against Streptococcus pyogenes 12-207 expressing mef incubated for 20 to 24 hrs followed by sub-culturing for 24 hrs in absence of compound
[7] = test system: Moraxella catarrhalis; assay: Bacteriostatic activity against erythromycin-susceptible Moraxella catarrhalis 11B366 after 20 hrs by two-fold microbroth dilution method; settings: 11B366, 20 h
[8] = test system: Haemophilus influenzae; assay: Bactericidal activity against azithromycin susceptible/ampicillin-resistant Haemophilus influenzae 11P307 incubated for 20 to 24 hrs followed by sub-culturing for 24 hrs in absence of compound
[9] = test system: Streptococcus pneumoniae; assay: Bacteriostatic activity against […] Streptococcus pneumoniae ATCC 49619 after 20 to 24 hrs by two-fold microbroth dilution method
[10] = test system: Staphylococcus aureus; assay: Bactericidal activity against methicillin-resistant Staphylococcus aureus PU32 expressing inducible ermA incubated for 20 hrs followed by sub-culturing for 24 hrs in absence of compound
[11] = test system: Streptococcus pyogenes; assay: Bacteriostatic activity against Streptococcus pyogenes 01-968 expressing inducible ermA after 20 to 24 hrs by two-fold microbroth dilution method
[12] = test system: Staphylococcus aureus; assay: Bacteriostatic activity against methicillin-resistant Staphylococcus aureus PU32 expressing inducible ermA after 20 hrs by two-fold microbroth dilution method; settings: PU32, 20 h
[13] = test system: Streptococcus pneumoniae; assay: Bactericidal activity against […] Streptococcus pneumoniae ATCC 49619 incubated for 20 to 24 hrs followed by sub-culturing for 24 hrs in absence of compound
[14] = test system: Staphylococcus aureus; assay: Bactericidal activity against methicillin-resistant Staphylococcus aureus PU20 expressing constitutive ermC incubated for 20 hrs followed by sub-culturing for 24 hrs in absence of compound
[15] = test system: Streptococcus pneumoniae; assay: Bactericidal activity against penicillin-susceptible Streptococcus pneumoniae PU09 incubated for 20 to 24 hrs followed by sub-culturing for 24 hrs in absence of compound
[16] = test system: Streptococcus pyogenes; assay: Bacteriostatic activity against Streptococcus pyogenes 12-207 expressing mef after 20 to 24 hrs by two-fold microbroth dilution method
[17] = test system: Streptococcus pyogenes; assay: Ratio of MBC to MIC for Streptococcus pyogenes 01-968 expressing inducible ermA
[18] = test system: Streptococcus pyogenes; assay: Ratio of MBC to MIC for Streptococcus pyogenes 12-207 expressing mef
[19] = test system: Haemophilus influenzae; assay: Ratio of MBC to MIC for azithromycin susceptible/ampicillin-resistant Haemophilus influenzae 11P307
[20] = test system: Haemophilus influenzae; assay: Bacteriostatic activity against azithromycin-susceptible/ampicillin-resistant Haemophilus influenzae 11P307 after 20 to 24 hrs by two-fold microbroth dilution method
[21] = test system: Streptococcus pyogenes; assay: Bactericidal activity against Streptococcus pyogenes 01-968 expressing inducible ermA incubated for 20 to 24 hrs followed by sub-culturing for 24 hrs in absence of compound
[22] = test system: Streptococcus pneumoniae; assay: Ratio of MBC to MIC for […] Streptococcus pneumoniae ATCC 49619
[23] = test system: Streptococcus pneumoniae; assay: Bacteriostatic activity against penicillin-susceptible Streptococcus pneumoniae PU09 after 20 to 24 hrs by two-fold microbroth dilution method
[24] = test system: Streptococcus pneumoniae; assay: Ratio of MBC to MIC for penicillin-susceptible Streptococcus pneumoniae PU09
[25] = test system: Moraxella catarrhalis; assay: Bactericidal activity against erythromycin-susceptible Moraxella catarrhalis 13L332 incubated for 20 hrs followed by sub-culturing for 24 hrs in absence of compound
[26] = test system: Moraxella catarrhalis; assay: Ratio of MBC to MIC against erythromycin-susceptible Moraxella catarrhalis 13L332
[27] = test system: Moraxella catarrhalis; assay: Bacteriostatic activity against erythromycin-susceptible Moraxella catarrhalis 13L332 after 20 hrs by two-fold microbroth dilution method; settings: 13L332, 20 h

SMILES | Ratio [2] | Ratio [3] | MBC [4] [µg/mL] | MIC [5] [µg/mL] | MBC [6] [µg/mL] | MIC [7] [µg/mL] | MIC [9] [µg/mL] | MBC [10] [µg/mL] | MIC [11] [µg/mL] | MIC [12] [µg/mL] | MBC [13] [µg/mL] | MBC [14] [µg/mL] | MBC [15] [µg/mL] | Ratio [17] | MBC [21] [µg/mL] | Ratio [22] | MIC [23] [µg/mL] | Ratio [24] | MBC [25] [µg/mL] | MIC [27] [µg/mL] | other results
CC[C@H]1OC(=O)[C@H](C)C(=O)[C@H](C)[C@@H](O[C@@H]2O[C@H](C)C[C@H](N(C)C)[C@H]2O)[C@](C)(OC)C[C@@H](C)/C(=N\OCC#Cc2cncc3ccccc23)[C@H](C)[C@H]2OC(=O)O[C@@]21C | 1 | >8 | 4 (≈ 5.04 µM) | 32 (≈ 40.3 µM) | > 0.125 | 4 (≈ 5.04 µM) | ≤ 0.008 | > 8 | 0.25 (≈ 0.315 µM) | 1 (≈ 1.26 µM) | 0.031 (≈ 0.039 µM) | 64 (≈ 80.6 µM) | 0.5 (≈ 0.63 µM) | >8 | > 2 | >=4 | 0.25 (≈ 0.315 µM) | 2 | – | – | Ratio [1]: 2; MBC [8]: > 128 µg/mL; MIC [16]: 0.016 µg/mL (≈ 0.0202 µM); Ratio [18]: >8; Ratio [19]: >8; MIC [20]: 16 µg/mL (≈ 20.2 µM)
CC[C@H]1OC(=O)[C@H](C)[C@H](OC(=O)Cc2ccccn2)[C@H](C)[C@@H](O[C@@H]2O[C@H](C)C[C@H](N(C)C)[C@H]2O)[C@@](C)(OC/C=C/c2cnc3ccccc3c2)C[C@@H](C)/C(=N\O)[C@H](C)[C@H]2OC(=O)O[C@@]21C | – | >4 | – | 256 (≈ 283 µM) | – | – | 4 (≈ 4.43 µM) | > 256 | 8 (≈ 8.86 µM) | 64 (≈ 70.9 µM) | 16 (≈ 17.7 µM) | > 256 | 16 (≈ 17.7 µM) | 8 | 64 (≈ 70.9 µM) | 4 | 8 (≈ 8.86 µM) | 2 | > 4 | 0.5 (≈ 0.554 µM) | Ratio [26]: >8
C=CCN(C)[C@H]1C[C@@H](C)O[C@@H](O[C@@H]2[C@@H](C)C(=O)[C@@H](C)C(=O)O[C@H](CC)[C@@]3(C)OC(=O)O[C@@H]3[C@@H](C)/C(=N/OC/C=C/c3cnc4ccccc4c3)[C@H](C)C[C@@]2(C)OC)[C@@H]1O | 2 | >8 | 16 (≈ 19.5 µM) | > 256 | 1 (≈ 1.22 µM) | 8 (≈ 9.73 µM) | 0.062 (≈ 0.0754 µM) | > 16 | 0.5 (≈ 0.608 µM) | 2 (≈ 2.43 µM) | 0.25 (≈ 0.304 µM) | – | 0.5 (≈ 0.608 µM) | 8 | 4 (≈ 4.87 µM) | 4 | 0.5 (≈ 0.608 µM) | 1 | – | – | MBC [8]: > 256 µg/mL; MIC [16]: 0.25 µg/mL (≈ 0.304 µM); Ratio [18]: 4; Ratio [19]: >8; MIC [20]: 32 µg/mL (≈ 38.9 µM)
CC[C@H]1OC(=O)[C@H](C)[C@@H](OC(=O)Cc2ccccn2)[C@H](C)[C@@H](O[C@@H]2O[C@H](C)C[C@H](N(C)C)[C@H]2O)[C@](C)(OC)C[C@@H](C)/C(=N\OC/C=C/c2cccnc2)[C@H](C)[C@H]2OC(=O)O[C@@]21C | – | – | – | > 256 | – | – | 16 (≈ 18.5 µM) | > 256 | 64 (≈ 73.8 µM) | 256 (≈ 295 µM) | > 64 | > 256 | > 64 | – | > 64 | >4 | 8 (≈ 9.23 µM) | >8 | 64 (≈ 73.8 µM) | 32 (≈ 36.9 µM) | Ratio [26]: 2
CC[C@H]1OC(=O)[C@H](C)[C@H](OC(=O)Cc2ccccn2)[C@H](C)[C@@H](O[C@@H]2O[C@H](C)C[C@H](N(C)C)[C@H]2O)[C@](C)(OC)C[C@@H](C)/C(=N\OC)[C@H](C)[C@H]2OC(=O)O[C@@]21C | – | – | – | > 256 | – | – | > 64 | > 256 | > 64 | > 256 | > 64 | > 256 | > 64 | – | > 64 | – | 32 (≈ 41.9 µM) | – | > 64 | 32 (≈ 41.9 µM) | –
CC[C@H]1OC(=O)[C@@](C)(F)C(=O)[C@H](C)[C@@H](O[C@@H]2O[C@H](C)C[C@H](N(C)C)[C@H]2O)[C@](C)(OC)C[C@@H](C)/C(=N\OC/C=C/c2cnc3ccccc3c2)[C@H](C)[C@H]2OC(=O)O[C@@]21C | 1 | >8 | 2 (≈ 2.46 µM) | 64 (≈ 78.6 µM) | > 0.5 | 2 (≈ 2.46 µM) | ≤ 0.008 | > 16 | 0.25 (≈ 0.307 µM) | 2 (≈ 2.46 µM) | 0.062 (≈ 0.0762 µM) | 256 (≈ 315 µM) | 1 (≈ 1.23 µM) | 8 | 2 (≈ 2.46 µM) | >=8 | 0.5 (≈ 0.614 µM) | 2 | – | – | Ratio [1]: 4; MBC [8]: > 64 µg/mL; MIC [16]: 0.062 µg/mL (≈ 0.0762 µM); Ratio [18]: >8; Ratio [19]: >8; MIC [20]: 8 µg/mL (≈ 9.83 µM)
CC[C@H]1OC(=O)[C@@](C)(F)[C@H](OC(=O)Cc2ccccn2)[C@H](C)[C@@H](O[C@@H]2O[C@H](C)C[C@H](N(C)C)[C@H]2O)[C@](C)(OC)C[C@@H](C)/C(=N\OC)[C@H](C)[C@H]2OC(=O)O[C@@]21C | – | – | – | > 256 | – | – | 64 (≈ 81.9 µM) | > 256 | 64 (≈ 81.9 µM) | > 256 | 64 (≈ 81.9 µM) | > 256 | > 64 | – | > 64 | 1 | 32 (≈ 40.9 µM) | – | 64 (≈ 81.9 µM) | 32 (≈ 40.9 µM) | Ratio [26]: 2
CC[C@H]1OC(=O)[C@@](C)(F)C(=O)[C@H](C)[C@@H](O[C@@H]2O[C@H](C)C[C@H](N(C)C)[C@H]2O)[C@](C)(OC)C[C@@H](C)/C(=N\OCC#Cc2cncc3ccccc23)[C@H](C)[C@H]2OC(=O)O[C@@]21C | 2 | >8 | 2 (≈ 2.46 µM) | 32 (≈ 39.4 µM) | > 0.25 | 1 (≈ 1.23 µM) | ≤ 0.008 | > 8 | 0.062 (≈ 0.0764 µM) | 1 (≈ 1.23 µM) | 0.031 (≈ 0.0382 µM) | 128 (≈ 158 µM) | 1 (≈ 1.23 µM) | >8 | > 0.5 | >=4 | 0.25 (≈ 0.308 µM) | 4 | – | – | Ratio [1]: 4; MBC [8]: > 64 µg/mL; MIC [16]: 0.031 µg/mL (≈ 0.0382 µM); Ratio [18]: >8; Ratio [19]: >8; MIC [20]: 8 µg/mL (≈ 9.85 µM)
CC[C@H]1OC(=O)[C@H](C)[C@H](OC(=O)c2ccccn2)[C@H](C)[C@@H](O[C@@H]2O[C@H](C)C[C@H](N(C)C)[C@H]2O)[C@](C)(OC)C[C@@H](C)/C(=N\OC)[C@H](C)[C@H]2OC(=O)O[C@@]21C | – | – | – | > 256 | – | – | 64 (≈ 85.3 µM) | > 256 | > 64 | > 256 | > 64 | > 256 | > 64 | – | > 64 | – | 64 (≈ 85.3 µM) | – | > 64 | 32 (≈ 42.7 µM) | –
C#CCN(C)[C@H]1C[C@@H](C)O[C@@H](O[C@@H]2[C@@H](C)C(=O)[C@@H](C)C(=O)O[C@H](CC)[C@@]3(C)OC(=O)O[C@@H]3[C@@H](C)/C(=N/OC/C=C/c3cnc4ccccc4c3)[C@H](C)C[C@@]2(C)OC)[C@@H]1O | >8 | – | > 256 | > 256 | > 8 | 32 (≈ 39 µM) | 0.25 (≈ 0.305 µM) | > 16 | 0.5 (≈ 0.61 µM) | 16 (≈ 19.5 µM) | 1 (≈ 1.22 µM) | – | 4 (≈ 4.88 µM) | >8 | > 4 | – | 1 (≈ 1.22 µM) | 4 | – | – | MIC [16]: 1 µg/mL (≈ 1.22 µM); Ratio [18]: >8; MIC [20]: > 256 µg/mL
CC[C@H]1OC(=O)[C@H](C)[C@@H](OC(=O)Cc2ccccn2)[C@H](C)[C@@H](O[C@@H]2O[C@H](C)C[C@H](N(C)C)[C@H]2O)[C@](C)(OC)C[C@@H](C)/C(=N\OC)[C@H](C)[C@H]2OC(=O)O[C@@]21C | – | >8 | – | > 256 | – | – | 0.125 (≈ 0.164 µM) | > 32 | 0.25 (≈ 0.327 µM) | 4 (≈ 5.24 µM) | 0.25 (≈ 0.327 µM) | > 256 | 1 (≈ 1.31 µM) | 8 | 2 (≈ 2.62 µM) | – | 0.5 (≈ 0.655 µM) | 2 | > 2 | 0.25 (≈ 0.327 µM) | Ratio [26]: >8
